Assay results: patent US20260055083A1, “APOL1 INHIBITORS AND METHODS OF USE” (Maze Therapeutics, Inc., priority 2022, published 2026)

Legend:
APOL1 G2 [1] = molecular target: T1, APOL1 G2 (Homo sapiens, UniProt O14791, DEL388-389); test: APOL1 G2 HEK293 rescue of cell death caused by overexpression of APOL1 (CellTiter-Glo); type: cell-based; details: HEK293/T-REx APOL1 G2 clone #2, doxycycline induction, 17 hours, CellTiter-Glo luminescence; reversal of cell death; geometric mean of at least 2 assay runs
T1 construct: expressed in transfected cells; host or cells: HEK293/T-REx APOL1 G2 clone #2, doxycycline-inducible
T1 sequence (O14791 with tags, fused parts or gaps DEL388-389): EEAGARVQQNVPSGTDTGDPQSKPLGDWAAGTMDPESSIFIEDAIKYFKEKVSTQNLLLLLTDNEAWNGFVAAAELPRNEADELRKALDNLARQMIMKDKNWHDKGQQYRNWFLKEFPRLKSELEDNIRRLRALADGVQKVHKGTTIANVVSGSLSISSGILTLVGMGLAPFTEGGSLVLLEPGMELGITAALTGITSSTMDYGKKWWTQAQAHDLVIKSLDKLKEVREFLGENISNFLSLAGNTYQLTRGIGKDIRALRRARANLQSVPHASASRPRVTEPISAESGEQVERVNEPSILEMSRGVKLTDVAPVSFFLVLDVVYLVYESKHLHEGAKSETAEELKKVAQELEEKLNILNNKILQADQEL
Method: A HEK293 clonal cell line overexpressing APOL1 G2 (HEK293/T-REx APOL1 G2/clone #2) was maintained in 1×DMEM-GlutaMax (Gibco, 10569-010) media with 10% tetracycline-free FBS (Takara Bio USA, 631101), 5 μg/mL Blasticidin (Gibco, A1113903), and 100 μg/mL Zeocin (Invitrogen, R25001) in T75 flasks. In preparation for the assay, this media was aspirated and 2 mL of prewarmed TrypLE Express (Gibco, 12605-010) was added to a flask to detach cells. The flask was then incubated (humidified, 37° C. with 5% CO2) for 3-5 minutes. Afterwards, 8 mL of prewarmed cell assay media (1×DMEM-GlutaMax media with 10% tetracycline-free FBS) was added to the trypsinized cells. The suspension was gently mixed, and cells were counted using a Countess Cell Counting Chamber (Invitrogen). The suspension was diluted using cell assay media to generate a working stock solution (166,667 cells/mL). Using a MultiDrop Combi (Thermo Electron Corp), 30 μL (final cell density=5,000 cells/well) of the working stock solution was dispensed into each well of white 384-well assay ready plates (Nunc™, 164610) containing 6 ng/mL doxycycline, to induce APOL1 expression, and compound. All compounds were plated in a duplicate 8-point dilution series that consisted of 3-fold stepwise dilutions (0.5% DMSO final). Assay plates were incubated (humidified, 37° C. with 5% CO2) for 17 hours. After the incubation, the plates were equilibrated at room temperature for 1 hour. Next, 15 μl of CellTiter-Glo® reagent (Promega, G7570) was added to each well using a MultiDrop Combi. Plates were placed on an orbital shaker (500 rpm) for 5 minutes to induce cell lysis and then incubated at room temperature for 10 minutes. Luminescence was measured on an Envision plate reader. Collaborative Drug Discovery software was utilized for graphing data. Plots were generated using a four parameter logistic curve fit.
Table B2 below provides the results from this experiment. Unless otherwise specified, EC50 values are reported as the geometric mean of at least 2 assay runs on separate days. Each run represents the average of a technical replicate, where each compound was assayed twice in the same plate. A superscript t symbol indicates a value from the average of a technical replicate from a single assay run, where each compound was assayed twice in the same plate. Compounds in Table B2 are referred to by the corresponding Compound Number in Table 1, which is also referred to in the synthetic examples. When one or more of the numbered compounds are identified by stereochemistry (for example, (R)- or (S)-), the specific stereoisomer for which data is provided in Table B2 may be identified by the elution order of such compound as described in the synthetic examples. To illustrate, Compound 2 is the first-eluting enantiomer of step 4 of Example 1 and Compound 3 is the second-eluting enantiomer of step 4 of Example 1. Further, by way of illustration, Compound 27 is the first-eluting enantiomeric mixture in step 4 of Example 7 and Compound 28 is the second-eluting enantiomeric mixture in step 4 of Example 7. Then, Compound 27 is separated into Compound 29 (the first-eluting enantiomer) and Compound 30 (the second-eluting enantiomer) in Example 8, and Compound 28 is separated into Compound 31 (the first-eluting enantiomer) and Compound 32 (the second-eluting enantiomer) in Example 8. Absolute stereochemistry of such compounds may be identified by methods known in the art.
Rescue EC50 values reported in Table B2 below represent the half-maximal effective concentration for reversal of cell death caused by overexpression of APOL1.

APOL1 G2 [2] = molecular target: T1, APOL1 G2; test: APOL1 G2 FLIPR calcium influx assay (HEK T-REx/GCaMP6f/APOL1 G2 K6.3 cells); type: cell-based; details: HEK293 clone expressing GCaMP6f, doxycycline-induced APOL1 G2; prevention of calcium influx; geometric mean of at least 2 assay runs
Method: A HEK293 clonal cell line was generated to stably express GCaMP6f, a genetically encoded calcium indicator, and inducibly express APOL1 G2 (HEK T-REx/GCaMP6f/APOL1 G2 K6.3). Cells were maintained in the following standard complete medium: DMEM with 4.5 g/L glucose and sodium pyruvate (BioWhittaker, Lonza, BE12-614F), supplemented with 10% FBS Performance Plus (Gibco, 16000044), 1% penicillin-streptomycin (BioWhittaker, DE17-602E), 2 mM ultraglutamine-1 (BioWhittaker cat. BE 17-605/U1), 50 μg/mL Zeocin (InvivoGen, ant-zn), 2.5 μg/mL Blasticidin (InvivoGen, ant-bl-5), and 25 μg/mL Hygromycin (InvivoGen, ant-hg). Standard propagation conditions consisted of plating 9×10^6, 4×10^6, 2×10^6 cells in a T225 flasks to be processed after 2, 3, or 4 days, respectively.
A source plate was generated containing 20 serially diluted compounds in DMSO (duplicate 8-point dose response). Next, 0.8 μL of compounds were transferred from the source plate to a destination plate prefilled with 79.2 μL of Ca^2+ free Tyrode's buffer (130 mM NaCl, 5 mM KCl, 1 mM MgCl2, 5 mM NaHCO3, 20 mM HEPES at pH 7.4). The destination plate was placed on a plate shaker (5 seconds at 2000 rpm) to mix. […] All transfer and mixing steps were conducted with an CyBi®-Well dispenser.
Cells were split by gently washing with DPBS (Euroclone, ECB4004L), followed by a 5-minute incubation (humidified, 37° C. with 5% CO2) with trypsin-EDTA solution (Euroclone, ECB3052D). Detached cells were diluted with standard complete medium without selective agents, counted, and plated in a 384 MTP microplate (GR4332CPL, Twin Helix) (10,000 cells/well in 25 μl/well) using a MATRIX WellMate dispenser. Plates were placed into a humidified incubator (37° C. with 5% CO2) overnight. The following day, 20 μL of doxycycline (Sigma, D9891) at 20 ng/mL in standard complete medium was added to cells with a CyBi®Drop dispenser to induce APOL1 G2 expression. After a 6-hour incubation (humidified, 37° C. with 5% CO2), cells were washed 3 times with Ca^2+ free Tyrode's Buffer (130 mM NaCl, 5 mM KCl, 1 mM MgCl2, 5 mM NaHCO3, 20 mM HEPES at pH 7.4) using a BIOTEK Microplate washer, such that 10 μL of buffer remained in each well after the final wash. Assay plates were then stored at room temperature for 10 minutes. Next, 10 μL of diluted compounds were transferred to the assay plate from the 2× compound plate using a CyBi®-Well dispenser. Compound incubation was then carried out at room temperature for 10 minutes. The assay plate was transferred to the […] and 20 μL of 10 mM Ca^2+ (final concentration=5 mM) Tyrode's buffer was injected.
Table B1 below summarizes the data from this experiment. Unless otherwise specified, AC50 and values are reported as the geometric mean of at least 2 assay runs on separate days. Each run represents the average of a technical replicate, where each compound was assayed twice in the same plate. A superscript t symbol indicates a value from the average of a technical replicate from a single assay run, where each compound was assayed twice in the same plate.
The AC50 values in Table B1 below reflect the compound's ability to prevent calcium influx by inhibiting APOL1. […] Compounds in Table B1 are referred to by the corresponding Compound Number in Table 1, which is also referred to in the synthetic examples. When one or more of the numbered compounds are identified by stereochemistry (for example, (R)- or (S)-), the specific stereoisomer for which data is provided in Table B1 may be identified by the elution order of such compound as described in the synthetic examples. To illustrate, Compound 2 is the first-eluting enantiomer of step 4 of Example 1 and Compound 3 is the second-eluting enantiomer of step 4 of Example 1. Further, by way of illustration, Compound 27 is the first-eluting enantiomeric mixture in step 4 of Example 7 and Compound 28 is the second-eluting enantiomeric mixture in step 4 of Example 7. […]

Row | AC50 (APOL1 G2 [2]) [µM] | Compound | EC50 (APOL1 G2 [1]) [µM]
1 | 1.02 | CC(Cc1cc(Cl)cc(C#N)c1)N1C[C@@H](COc2ccc(S(C)(=O)=O)cc2)C[C@H]1C (single isomer, unassigned) [Compound 10, 3-chloro-5-[(2S or 2R)-2-[(2R,4S)-4-[(4-methanesulfonylphenoxy)methyl]-2-methylpyrrolidin-1-yl]propyl]benzonitrile] | 0.744
2 | 1.13 | CC(Cc1cc(Cl)cc(C#N)c1)N1C[C@@H](COc2ccc(S(C)(=O)=O)cc2)C[C@H]1C (single isomer, unassigned) [Compound 11, 3-chloro-5-[(2R or 2S)-2-[(2R,4S)-4-[(4-methanesulfonylphenoxy)methyl]-2-methylpyrrolidin-1-yl]propyl]benzonitrile] | 0.137
3 | 0.412 | CC(Cc1cc(Cl)cc(C#N)c1)N1C[C@@H](COc2ccc(S(C)(=O)=O)cc2)[C@H](C)C1 (single isomer, unassigned) [Compound 18, 3-chloro-5-[(2S or 2R)-2-[(3S,4S)-3-[(4-methanesulfonylphenoxy)methyl]-4-methylpyrrolidin-1-yl]propyl]benzonitrile] | 0.262
4 | 0.444 | CC(Cc1cc(Cl)cc(C#N)c1)N1C[C@@H](COc2ccc(S(C)(=O)=O)cc2)[C@H](C)C1 (single isomer, unassigned) [Compound 19, 3-chloro-5-[(2R or 2S)-2-[(3S,4S)-3-[(4-methanesulfonylphenoxy)methyl]-4-methylpyrrolidin-1-yl]propyl]benzonitrile] | 0.64

The remaining lines, values behind:

Row | Compound | AC50 (APOL1 G2 [2]) [µM] | EC50 (APOL1 G2 [1]) [µM]
5 | C[C@@H]1C[C@H](COc2ccc(S(C)(=O)=O)cc2)CN1C1CCc2ccc(Cl)cc2C1 (single isomer, unassigned) [Compound 6, (2R,4S)-1-[(2R or 2S)-7-chloro-1,2,3,4-tetrahydronaphthalen-2-yl]-4-[(4-methanesulfonylphenoxy)methyl]-2-methylpyrrolidine] | 0.839 | 0.661
6 | C[C@@H]1C[C@H](COc2ccc(S(C)(=O)=O)cc2)CN1C1CCc2c(C#N)cc(Cl)cc2C1 (single isomer, unassigned) [Compound 7, (6R or 6S)-3-chloro-6-[(2R,4S)-4-[(4-methanesulfonylphenoxy)methyl]-2-methylpyrrolidin-1-yl]-5,6,7,8-tetrahydronaphthalene-1-carbonitrile] | 1.54 | 0.195
7 | C[C@@H]1C[C@H](COc2ccc(S(C)(=O)=O)cc2)CN1C1CCc2c(C#N)cc(Cl)cc2C1 (single isomer, unassigned) [Compound 8, (6R or 6S)-3-chloro-6-[(2R,4S)-4-[(4-methanesulfonylphenoxy)methyl]-2-methylpyrrolidin-1-yl]-5,6,7,8-tetrahydronaphthalene-1-carbonitrile] | 1.07 | 0.15
8 | C[C@@H]1C[C@H](COc2ccc(S(C)(=O)=O)cc2)CN1C1CCc2c(C#N)cc(Cl)cc2C1 (single isomer, unassigned) [Compound 9, (6S or 6R)-3-chloro-6-[(2R,4S)-4-[(4-methanesulfonylphenoxy)methyl]-2-methylpyrrolidin-1-yl]-5,6,7,8-tetrahydronaphthalene-1-carbonitrile] | 1.28 | 0.516
9 | C[C@@H]1CN(C2CCc3ccc(Cl)cc3C2)C[C@H]1COc1ccc(S(C)(=O)=O)cc1 (single isomer, unassigned) [Compound 15, (3S,4S)-1-[(2S or 2R)-7-chloro-1,2,3,4-tetrahydronaphthalen-2-yl]-3-[(4-methanesulfonylphenoxy)methyl]-4-methylpyrrolidine] | 1.75 | 1.83
10 | C[C@@H]1CN(C2CCc3ccc(Cl)cc3C2)C[C@H]1COc1ccc(S(C)(=O)=O)cc1 (single isomer, unassigned) [Compound 16, (3S,4S)-1-[(2R or 2S)-7-chloro-1,2,3,4-tetrahydronaphthalen-2-yl]-3-[(4-methanesulfonylphenoxy)methyl]-4-methylpyrrolidine] | 1.08 | 0.712
11 | Cc1cc(OC[C@H]2C[C@@H](C)N(CCc3cccc(C#N)c3)C2)cnc1S(C)(=O)=O (single isomer, unassigned) [Compound 30] | 0.185 | 0.0384
